Read-outs that look alike come from different tables or passages of the source. Marks after values point to notes of the source that are not given here.
Procedure: The vial was placed in a first 3 mL low density polyethylene (LDPE) bag with a 1/6 desiccant and the bag was twist tie closed. The first bag was placed in a second 3 mL LDPE bag, twist tie closed, and placed in a high density polyethylene (HDPE) container.

## CC[n+]1ccccc1-c1c2nc(c(-c3cccc[n+]3CC)c3ccc([n-]3)c(-c3cccc[n+]3CC)c3nc(c(-c4cccc[n+]4CC)c4ccc1[n-]4)C=C3)C=C2.[Cl-].[Cl-].[Cl-].[Cl-].[Cl-].[Mn+3] [BMX-010]
25° C./60% RH, 3 Month
  Appearance: Brown Solid
  Assay by UPLC (Wt % of an anhydrous basis, sum of Atropisomers): 100.3%
  PSD D10: D10: 0.60 μm
  PSD D50: D50: 1.1 μm
  PSD D90: D90: 2.0 μm
  Total Impurities by HPLC (Area %): 0.81%
  Water Content by Karl Fischer: 7.3%
25° C./60% RH, 6 Month
  Appearance: Brown Solid
  Assay by UPLC (Wt % of an anhydrous basis, sum of Atropisomers): 99.9%
  PSD D10: D10: 0.62 μm*
  PSD D50: D50: 1.2 μm*
  PSD D90: D90: 2.0 μm*
  Total Impurities by HPLC (Area %): 0.88%
  Water Content by Karl Fischer: 7.7%
  XRPD: Amorphous
40° C./75% RH, 3 Month
  Appearance: Brown Solid
  Assay by UPLC (Wt % of an anhydrous basis, sum of Atropisomers): 100.2%
  PSD D10: D10: 0.60 μm
  PSD D50: D50: 1.2 μm
  PSD D90: D90: 2.1 μm
  Total Impurities by HPLC (Area %): 1.3%
  Water Content by Karl Fischer: 7.5%
40° C./75% RH, 6 Month
  Appearance: Brown Solid
  Assay by UPLC (Wt % of an anhydrous basis, sum of Atropisomers): 97.9%**
  PSD D10: D10: 0.61 μm*
  PSD D50: D50: 1.2 μm*
  PSD D90: D90: 2.1 μm*
  Total Impurities by HPLC (Area %): 1.6%**
  Water Content by Karl Fischer: 8.5%
  XRPD: Amorphous
T = 0
  Appearance: Brown Solid
  Assay by UPLC (Wt % of an anhydrous basis, sum of Atropisomers): 97.5%
  PSD D10: D10: 0.61 μm
  PSD D50: D50: 1.2 μm
  PSD D90: D90: 2.0 μm
  Total Impurities by HPLC (Area %): 0.67%
  Water Content by Karl Fischer: 6.9%
  XRPD: Amorphous
−20° C., 3 Month
  Appearance: Brown Solid
  Assay by UPLC (Wt % of an anhydrous basis, sum of Atropisomers): 101.4%
  PSD D10: D10: 0.59 μm
  PSD D50: D50: 1.1 μm
  PSD D90: D90: 2.0 μm
  Total Impurities by HPLC (Area %): 0.63%
  Water Content by Karl Fischer: 7.0%
−20° C., 6 Month
  Appearance: Brown Solid
  Assay by UPLC (Wt % of an anhydrous basis, sum of Atropisomers): 100.7%
  PSD D10: D10: 0.59 μm*
  PSD D50: D50: 1.1 μm*
  PSD D90: D90: 1.9 μm*
  Total Impurities by HPLC (Area %): 0.63%
  Water Content by Karl Fischer: 7.4%
  XRPD: Amorphous

From patent US20230391809A1, “HYDROPHOBIC COMPOSITIONS INCLUDING A HYDROPHILIC ACTIVE INGREDIENT AND METHODS RELATING THERETO” (BioMimetix JV, LLC, priority 2022, published 2023)
